Assay results reported in patent US9115151B2, “Substituted 2,10-dihydro-9-oxa-1,2,4A-triazaphenanthren-3-ones and uses thereof” (AbbVie Inc., priority 2012, dated 2015).
Where a name gives a salt, the structure may show the parent alone.

Tests used:
[1] = tested on: CD3/CD28 induced IL-2 in human T-Blasts; experiment: T-Blasts CD3/CD28 induced IL-2 assay; format: cell-based; details: read-out: CD3/CD28-stimulated IL2 in T-blasts EC50
Method in brief: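 IL-2 in supernatants read after 24 h 37° C stimulation of human PHA T-blasts (2×10^5/well) with anti-CD3/anti-CD28 at 5 μg/mL final. Duplicate eight-point, 1/3-step compound series added 30 min before stimulus; residual cells checked by MTT for toxicity.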

PKCα = biological target: T1, PKCα (Homo sapiens, UniProt P17252); experiment: In vitro enzyme assay (time-resolved fluorescence kinase assay), PKCα, 100 μM ATP; format: biochemical; details: 100 μM ATP; read-out: PKCα enzyme IC50
T1 construct: His6; purchased Millipore; host or cells: baculovirus in Sf21 cells
Method in brief: (§1)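 Read-out was time-resolved fluorescence, corrected for a minus-enzyme blank and converted to percent activity relative to enzyme without drug. They were stopped with EDTA.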

PKCθ = biological target: T2, PKCθ (Homo sapiens, UniProt Q04759); experiment: In vitro enzyme assay (time-resolved fluorescence kinase assay), PKCθ, 100 μM ATP; format: biochemical
T2 construct: His6; purchased Millipore; host or cells: baculovirus in Sf21 cells
Method in brief: as §1

T2 sequence (Q04759 whole entry): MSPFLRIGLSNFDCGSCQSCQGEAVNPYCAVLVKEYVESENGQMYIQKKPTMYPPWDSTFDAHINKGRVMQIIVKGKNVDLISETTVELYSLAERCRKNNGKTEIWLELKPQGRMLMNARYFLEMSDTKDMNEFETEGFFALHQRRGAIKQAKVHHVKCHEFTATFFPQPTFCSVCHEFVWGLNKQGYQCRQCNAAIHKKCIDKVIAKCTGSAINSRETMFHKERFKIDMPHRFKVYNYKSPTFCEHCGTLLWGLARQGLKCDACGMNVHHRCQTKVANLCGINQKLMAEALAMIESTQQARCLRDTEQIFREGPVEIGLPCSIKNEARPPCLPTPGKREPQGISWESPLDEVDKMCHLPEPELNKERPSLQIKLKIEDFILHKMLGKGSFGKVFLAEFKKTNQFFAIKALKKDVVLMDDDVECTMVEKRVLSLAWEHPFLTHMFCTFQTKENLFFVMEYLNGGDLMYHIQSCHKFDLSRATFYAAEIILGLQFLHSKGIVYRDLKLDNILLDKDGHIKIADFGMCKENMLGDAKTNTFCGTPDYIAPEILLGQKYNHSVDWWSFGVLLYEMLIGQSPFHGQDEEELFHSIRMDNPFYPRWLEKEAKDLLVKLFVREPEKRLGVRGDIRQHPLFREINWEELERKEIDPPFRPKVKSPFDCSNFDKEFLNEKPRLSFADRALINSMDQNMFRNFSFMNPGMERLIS

EC50 [1] [nM] | IC50 (PKCα) [nM] | IC50 (PKCθ) [nM] | SMILES
250 to 1000 | 250 to 1000 | < 250 | CC(C)c1cc2c(cc1[C@@H](C)C1(C)CN(CCO)C1)N1C(=NNC(=O)[C@H]1C)CO2 [Example 138, (R)-6-{(R)-1-[1-(2-Hydroxy-ethyl)-3-methyl-azetidin-3-yl]-ethyl}-7-isopropyl-4-methyl-2,10-dihydro-9-oxa-1,2,4a-triaza-phenanthren-3-one hydrochloric acid]
< 250 | < 250 | < 250 | C[C@H](O)CN1CC(C)([C@H](C)c2cc3c(cc2-c2ccccc2F)OCC2=NNC(=O)[C@@H](C)N23)C1 [Example 139, (R)-7-(2-Fluoro-phenyl)-6-{(R)-1-[1-((S)-2-hydroxy-propyl)-3-methyl-azetidin-3-yl]-ethyl}-4-methyl-2,10-dihydro-9-oxa-1,2,4a-triaza-phenanthren-3-one hydrochloric acid]
< 250 | 250 to 1000 | < 250 | C[C@@H]1C(=O)NN=C2COc3cc(-c4ccccc4F)c([C@@H](C)C4(C)CN(C[C@@H](C)O)C4)cc3N21 [Example 140]
< 250 | 250 to 1000 | < 250 | C[C@@H]1C(=O)NN=C2COc3cc(-c4ccccc4F)c([C@@H](C)C4(C)CN(CCO)C4)cc3N21 [Example 141]
250 to 1000 | 1000 to 10000 | < 250 | C[C@@H]1C(=O)NN=C2COc3cc(-c4ccccc4F)c([C@@H](C)C4(C)CN(CC5CCOCC5)C4)cc3N21 [Example 142]
< 250 | 250 to 1000 | < 250 | C[C@@H]1C(=O)NN=C2COc3cc(-c4ccccc4F)c([C@@H](C)C4(C)CN(CC(C)(C)O)C4)cc3N21 [Example 143]
250 to 1000 | 1000 to 10000 | < 250 | C[C@@H]1C(=O)NN=C2COc3cc(-c4ccccc4F)c([C@@H](C)C4(C)CN(CC5COC5)C4)cc3N21 [Example 144]
250 to 1000 | 1000 to 10000 | < 250 | COCCN1CC(C)([C@H](C)c2cc3c(cc2-c2ccccc2F)OCC2=NNC(=O)[C@@H](C)N23)C1 [Example 145]
< 250 | < 250 | < 250 | C[C@@H]1C(=O)NN=C2COc3cc(-c4ccccc4F)c([C@@H](C)C4(C)CNC4)cc3N21 [Example 146, (R)-7-(2-Fluoro-phenyl)-4-methyl-6-[(R)-1-(3-methyl-azetidin-3-yl)-ethyl]-2,10-dihydro-9-oxa-1,2,4a-triaza-phenanthren-3-one]
< 250 | 250 to 1000 | < 250 | C[C@@H]1C(=O)NN=C2COc3cc4ccn(C5(C)CNC5)c4cc3N21 [Example 148, (R)-1-Methyl-10-(3-methyl-azetidin-3-yl)-3,5-dihydro-10H-6-oxa-3,4,10,11b-tetraaza-cyclopenta[b]phenanthren-2-one hydrochloride]
< 250 | 1000 to 10000 | < 250 | [2H]c1cn(C2(C)CNC2)c2cc3c(cc12)OCC1=NNC(=O)C(C)N13 (stereo not drawn) [Example 149, 8-Deuterated-1-methyl-10-(3-methyl-azetidin-3-yl)-3,5-dihydro-10H-6-oxa-3,4,10,11b-tetraaza-cyclopenta[b]phenanthren-2-one hydrochloride]
250 to 1000 | 1000 to 10000 | < 250 | CCC1(n2ccc3cc4c(cc32)N2C(=NNC(=O)[C@H]2C)CO4)CNC1 [Example 150]
< 250 | 250 to 1000 | < 250 | C[C@@H]1C(=O)NN=C2COc3cc4ccn([C@H]5CCNC5)c4cc3N21 [Example 151-1, (R)-1-Methyl-10-(S)-pyrrolidin-3-yl-3,5-dihydro-10H-6-oxa-3,4,10,11b-tetraaza-cyclopenta[b]phenanthren-2-one hydrochloric acid]
250 to 1000 | 1000 to 10000 | < 250 | C[C@@H]1C(=O)NN=C2COc3cc4ccn([C@@H]5CCNC5)c4cc3N21 [Example 151-2, (R)-1-Methyl-10-(R)-pyrrolidin-3-yl-3,5-dihydro-10H-6-oxa-3,4,10,11b-tetraaza-cyclopenta[b]phenanthren-2-one hydrochloric acid]
250 to 1000 | 1000 to 10000 | < 250 | CC1C(=O)NN=C2COc3cc4ccn(C5CCCNC5)c4cc3N21 (stereo not drawn) [Example 152]
1000 to 10000 | 1000 to 10000 | 250 to 1000 | C[C@@H]1C(=O)NN=C2COc3cc4c(cc3N21)N([C@@H]1CCNC1)CC4 [Example 153, (R)-1-Methyl-10-(R)-pyrrolidin-3-yl-3,5,9,10-tetrahydro-8H-6-oxa-3,4,10,11b-tetraaza-cyclopenta[b]phenanthren-2-one hydrochloric acid]
250 to 1000 | 1000 to 10000 | < 250 | C[C@@H]1C(=O)NN=C2COc3cc4c(cc3N21)N([C@H]1CCNC1)CC4 [Example 154, (R)-1-Methyl-10-(S)-pyrrolidin-3-yl-3,5,9,10-tetrahydro-8H-6-oxa-3,4,10,11b-tetraaza-cyclopenta[b]phenanthren-2-one hydrochloric acid]

EC50 [1] [nM] | IC50 (PKCα) [nM] | IC50 (PKCθ) [nM] | SMILES
250 to 1000 | 1000 to 10000 | < 250 | CC(=O)N1CC(C)(n2ccc3cc4c(cc32)N2C(=NNC(=O)[C@H]2C)CO4)C1 [Example 155, (R)-10-(1-Acetyl-3-methyl-azetidin-3-yl)-1-methyl-3,5-dihydro-10H-6-oxa-3,4,10,11b-tetraaza-cyclopenta[b]phenanthren-2-one hydrochloric acid]
250 to 1000 | 1000 to 10000 | < 250 | CCc1cn(C2(C)CNC2)c2cc3c(cc12)OCC1=NNC(=O)[C@@H](C)N13 [Example 156, (R)-8-Ethyl-1-methyl-10-(3-methyl-azetidin-3-yl)-3,5-dihydro-10H-6-oxa-3,4,10,11b-tetraaza-cyclopenta[b]phenanthren-2-one hydrochloride]
< 250 | 250 to 1000 | < 250 | Cc1cn(C2(C)CNC2)c2cc3c(cc12)OCC1=NNC(=O)[C@@H](C)N13 [Example 157]
< 250 | 1000 to 10000 | < 250 | CC1C(=O)NN=C2COc3cc4c(cc3N21)N(C1(C)CNC1)CC4 (stereo not drawn) [Example 158, 1-Methyl-10-(3-methyl-azetidin-3-yl)-3,5,9,10-tetrahydro-8H-6-oxa-3,4,10,11b-tetraaza-cyclopenta[b]phenanthren-2-one 2,2,2-trifluoroacetate]
< 250 | 1000 to 10000 | < 250 | C[C@@H]1C(=O)NN=C2COc3cc4c(cc3N21)N(C1(C)CNC1)CC4 [Example 159, 1-Methyl-10-(3-methyl-azetidin-3-yl)-3,5,9,10-tetrahydro-8H-6-oxa-3,4,10,11b-tetraaza-cyclopenta[b]phenanthren-2-one hydrochloride]
< 250 | 250 to 1000 | < 250 | C[C@@H]1C(=O)NN=C2COc3cc4ccn(C5(C)CN(C)C5)c4cc3N21 [Example 160, (R)-10-(1,3-Dimethyl-azetidin-3-yl)-1-methyl-3,5-dihydro-10H-6-oxa-3,4,10,11b-tetraaza-cyclopenta[b]phenanthren-2-one hydrochloride]
< 250 | 250 to 1000 | < 250 | C[C@H]1C(=O)NN=C2COc3cc4ccn([C@@]5(C)CCNC5)c4cc3N21 [Example 162, (S)-1-Methyl-10-((S)-3-methyl-pyrrolidin-3-yl)-3,5-dihydro-10H-6-oxa-3,4,10,11b-tetraaza-cyclopenta[b]phenanthren-2-one]
< 250 | < 250 | < 250 | C[C@@H]1C(=O)NN=C2COc3cc4ccn([C@@]5(C)CCNC5)c4cc3N21 [Example 163, (R)-1-Methyl-10-((S)-3-methyl-pyrrolidin-3-yl)-3,5-dihydro-10H-6-oxa-3,4,10,11b-tetraaza-cyclopenta[b]phenanthren-2-one]
250 to 1000 | 1000 to 10000 | < 250 | C[C@@H]1C(=O)NN=C2COc3cc4ccn([C@]5(C)CCNC5)c4cc3N21 [Example 164, (R)-1-Methyl-10-((R)-3-methyl-pyrrolidin-3-yl)-3,5-dihydro-10H-6-oxa-3,4,10,11b-tetraaza-cyclopenta[b]phenanthren-2-one]
< 250 | < 250 | < 250 | CCN(c1cc2c(cc1-c1ccccc1F)OCC1=NNC(=O)C(C)N12)C1(C)CN(C)C1 (stereo not drawn) [Example 166, 6-[(1,3-Dimethyl-azetidin-3-yl)-ethyl-amino]-7-(2-fluoro-phenyl)-4-methyl-2,10-dihydro-9-oxa-1,2,4a-triaza-phenanthren-3-one hydrochloride acid]
< 250 | 250 to 1000 | < 250 | Cc1ccc(-c2cc3c(cc2N(C)C2(C)CN(C)C2)N2C(=NNC(=O)C2C)CO3)cc1 (stereo not drawn) [Example 167]
< 250 | 250 to 1000 | < 250 | CC1C(=O)NN=C2COc3cc(-c4ccc(F)cc4)c(N(C)C4(C)CN(C)C4)cc3N21 (stereo not drawn) [Example 168]
< 250 | 250 to 1000 | < 250 | CC1C(=O)NN=C2COc3cc(-c4cccc(F)c4)c(N(C)C4(C)CN(C)C4)cc3N21 (stereo not drawn) [Example 169]
< 250 | 1000 to 10000 | < 250 | CC1C(=O)NN=C2COc3cc(-c4cccc(C#N)c4)c(N(C)C4(C)CN(C)C4)cc3N21 (stereo not drawn) [Example 170]
< 250 | 1000 to 10000 | < 250 | CC1C(=O)NN=C2COc3cc(-c4ccco4)c(N(C)C4(C)CN(C)C4)cc3N21 (stereo not drawn) [Example 171]
< 250 | 250 to 1000 | < 250 | Cc1cccc(-c2cc3c(cc2N(C)C2(C)CN(C)C2)N2C(=NNC(=O)C2C)CO3)c1 (stereo not drawn) [Example 172]
